Test results taken from ChEMBL document CHEMBL3407338, “Synthesis and structure-activity relationship of novel 1,4-diazabicyclo[2.2.2]octane derivatives as potent antimicrobial agents” (Eur J Med Chem, 2015).
Converted amounts (≈) assume the structure as drawn.

Legend:
Pseudomonas aeruginosa [1] = assay: Antimicrobial activity against 10^7 CFU/ml Pseudomonas aeruginosa ATCC 9027 after 22 hrs by serial microdilution method; type: functional; settings: ATCC 9027, 22 h
Bacillus subtilis [2] = assay: Antimicrobial activity against 10^7 CFU/ml Bacillus subtilis ATCC 6633 after 22 hrs by serial microdilution method; type: functional; settings: ATCC 6633, 22 h
Staphylococcus aureus [3] = assay: Antimicrobial activity against 10^4 CFU/ml Staphylococcus aureus ATCC 25923 after 22 hrs by serial microdilution method; type: functional; settings: ATCC 25923, 22 h
Bacillus subtilis [4] = assay: Antimicrobial activity against 10^4 CFU/ml Bacillus subtilis ATCC 6633 after 22 hrs by serial microdilution method; type: functional; settings: ATCC 6633, 22 h
Pseudomonas aeruginosa [5] = assay: Antimicrobial activity against Pseudomonas aeruginosa ATCC 9027 at 1 ug/ml after 24 hrs by agar diffusion method; type: functional; settings: ATCC 9027, 24 h, read-out: DIZ
RPMI-8226 = assay: Cytotoxicity against human RPMI8226 cells after 72 hrs by MTT assay; type: cell-based; settings: RPMI-8226, 72 h
Candida albicans [6] = assay: Antimicrobial activity against Candida albicans ATCC 32354 at 1 ug/ml after 24 hrs by agar diffusion method; type: functional; settings: ATCC 32354, 24 h, read-out: DIZ
Staphylococcus aureus [7] = assay: Antimicrobial activity against Staphylococcus aureus ATCC 25923 at 1 ug/ml after 24 hrs by agar diffusion method; type: functional; settings: ATCC 25923, 24 h, read-out: DIZ
Salmonella enterica [8] = assay: Antimicrobial activity against 10^7 CFU/ml Salmonella enterica ATCC 14028 after 22 hrs by serial microdilution method; type: functional; settings: ATCC 14028, 22 h
MEF = assay: Cytotoxicity against mouse MEF cells after 72 hrs by MTT assay; type: cell-based
Staphylococcus aureus [9] = assay: Antimicrobial activity against 10^7 CFU/ml Staphylococcus aureus ATCC 25923 after 22 hrs by serial microdilution method; type: functional; settings: ATCC 25923, 22 h
Escherichia coli [10] = assay: Antimicrobial activity against Escherichia coli ATCC 25922 at 1 ug/ml after 24 hrs by agar diffusion method; type: functional; settings: ATCC 25922, 24 h, read-out: DIZ
Escherichia coli [11] = assay: Antimicrobial activity against 10^7 CFU/ml Escherichia coli ATCC 25922 after 22 hrs by serial microdilution method; type: functional; settings: ATCC 25922, 22 h
Salmonella enterica [12] = assay: Antimicrobial activity against Salmonella enterica ATCC 14028 at 1 ug/ml after 24 hrs by agar diffusion method; type: functional; settings: ATCC 14028, 24 h, read-out: DIZ
Bacillus subtilis [13] = assay: Antimicrobial activity against Bacillus subtilis ATCC 6633 at 1 ug/ml after 24 hrs by agar diffusion method; type: functional; settings: ATCC 6633, 24 h, read-out: DIZ
HEK-293T = assay: Cytotoxicity against human HEK293T cells after 72 hrs by MTT assay; type: cell-based
[14] = Cytotoxicity against mouse LMTK cells after 72 hrs by MTT assay; type: cell-based; settings: L-M(TK-)
Escherichia coli [15] = assay: Antimicrobial activity against 10^4 CFU/ml Escherichia coli ATCC 25922 after 22 hrs by serial microdilution method; type: functional; settings: ATCC 25922, 22 h
Candida albicans [16] = assay: Antimicrobial activity against 10^7 CFU/ml Candida albicans ATCC 32354 after 22 hrs by serial microdilution method; type: functional; settings: ATCC 32354, 22 h
Salmonella enterica [17] = assay: Antimicrobial activity against 10^4 CFU/ml Salmonella enterica ATCC 14028 after 22 hrs by serial microdilution method; type: functional; settings: ATCC 14028, 22 h
Candida albicans [18] = assay: Antimicrobial activity against 10^4 CFU/ml Candida albicans ATCC 32354 after 22 hrs by serial microdilution method; type: functional; settings: ATCC 32354, 22 h
Pseudomonas aeruginosa [19] = assay: Antimicrobial activity against 10^4 CFU/ml Pseudomonas aeruginosa ATCC 9027 after 22 hrs by serial microdilution method; type: functional; settings: ATCC 9027, 22 h
Salmonella enterica [20] = assay: Antimicrobial activity against Salmonella enterica ATCC 14028 at 0.1 ug/ml after 24 hrs by agar diffusion method; type: functional; settings: ATCC 14028, 24 h, read-out: DIZ
Escherichia coli [21] = assay: Antimicrobial activity against Escherichia coli ATCC 25922 at 0.1 ug/ml after 24 hrs by agar diffusion method; type: functional; settings: ATCC 25922, 24 h, read-out: DIZ
Staphylococcus aureus [22] = assay: Antimicrobial activity against Staphylococcus aureus ATCC 25923 at 0.1 ug/ml after 24 hrs by agar diffusion method; type: functional; settings: ATCC 25923, 24 h, read-out: DIZ
Candida albicans [23] = assay: Antimicrobial activity against Candida albicans ATCC 32354 at 0.1 ug/ml after 24 hrs by agar diffusion method; type: functional; settings: ATCC 32354, 24 h, read-out: DIZ
Pseudomonas aeruginosa [24] = assay: Antimicrobial activity against Pseudomonas aeruginosa ATCC 9027 at 0.1 ug/ml after 24 hrs by agar diffusion method; type: functional; settings: ATCC 9027, 24 h, read-out: DIZ
Bacillus subtilis [25] = assay: Antimicrobial activity against Bacillus subtilis ATCC 6633 at 0.1 ug/ml after 24 hrs by agar diffusion method; type: functional; settings: ATCC 6633, 24 h, read-out: DIZ

Compound	MBC (Pseudomonas aeruginosa [1]) [µg/mL]	MIC (Pseudomonas aeruginosa [1]) [µg/mL]	MBC (Bacillus subtilis [2]) [µg/mL]	MIC (Bacillus subtilis [2]) [µg/mL]	MBC (Staphylococcus aureus [3]) [µg/mL]	MIC (Staphylococcus aureus [3]) [µg/mL]	MBC (Bacillus subtilis [4]) [µg/mL]	MIC (Bacillus subtilis [4]) [µg/mL]	zone of inhibition at 1 µg/mL (Pseudomonas aeruginosa [5]) [mm]	IC50 (RPMI-8226) [µg/mL]	zone of inhibition at 1 µg/mL (Candida albicans [6]) [mm]	zone of inhibition at 1 µg/mL (Staphylococcus aureus [7]) [mm]	MBC (Salmonella enterica [8]) [µg/mL]	MIC (Salmonella enterica [8]) [µg/mL]	zone of inhibition at 0.1 µg/mL (Salmonella enterica [20]) [mm]	zone of inhibition at 0.1 µg/mL (Escherichia coli [21]) [mm]	zone of inhibition at 0.1 µg/mL (Staphylococcus aureus [22]) [mm]	zone of inhibition at 0.1 µg/mL (Candida albicans [23]) [mm]	zone of inhibition at 0.1 µg/mL (Pseudomonas aeruginosa [24]) [mm]	zone of inhibition at 0.1 µg/mL (Bacillus subtilis [25]) [mm]	also measured
CCCCCCCCCCCCCC[N+]12CC[N+](CCCCC[N+]34CC[N+](CCCCCCCCCCCCCC)(CC3)CC4)(CC1)CC2.[Br-].[Br-].[Br-].[Br-]	> 100	> 100	50	12.5	100	6.3	12.5	12.5	6	252	0	8	> 100	100	–	–	–	–	–	–	IC50 (MEF): 127 µg/mL; MBC (Staphylococcus aureus [9]): > 100 µg/mL; MIC (Staphylococcus aureus [9]): 50 µg/mL; zone of inhibition at 1 µg/mL (Escherichia coli [10]): 7 mm; MBC (Escherichia coli [11]): > 100 µg/mL; MIC (Escherichia coli [11]): 50 µg/mL; zone of inhibition at 1 µg/mL (Salmonella enterica [12]): 7 mm; zone of inhibition at 1 µg/mL (Bacillus subtilis [13]): 7 mm; IC50 (HEK-293T): 400 µg/mL; IC50 [14]: 219 µg/mL; MBC (Escherichia coli [15]): 50 µg/mL; MIC (Escherichia coli [15]): 25 µg/mL; MBC (Candida albicans [16]): 25 µg/mL; MIC (Candida albicans [16]): 25 µg/mL; MBC (Salmonella enterica [17]): > 100 µg/mL; MIC (Salmonella enterica [17]): 100 µg/mL; MBC (Candida albicans [18]): 25 µg/mL; MIC (Candida albicans [18]): 25 µg/mL; MBC (Pseudomonas aeruginosa [19]): 50 µg/mL; MIC (Pseudomonas aeruginosa [19]): 50 µg/mL
CCCCCCCCCCCCCCC[N+]12CC[N+](CCCCC[N+]34CC[N+](CCCCCCCCCCCCCCC)(CC3)CC4)(CC1)CC2	–	–	–	–	–	–	–	–	–	–	–	–	–	–	0	0	0	0	0	0	–
CCCCCCCCCCCCCCCC[N+]12CC[N+](CCCCC[N+]34CC[N+](CCCCCCCCCCCCCCCC)(CC3)CC4)(CC1)CC2	–	–	–	–	–	–	–	–	–	–	–	–	–	–	0	0	0	0	0	0	–
CCCCCCCCCCCCCCCCCC[N+]12CC[N+](CCCCC[N+]34CC[N+](CCCCCCCCCCCCCCCCCC)(CC3)CC4)(CC1)CC2	–	–	–	–	–	–	–	–	–	–	–	–	–	–	0	0	0	0	0	0	–
CC[C@@]1(O)C(=O)OCc2c1cc1n(c2=O)Cc2cc3ccccc3nc2-1 [CAMPTOTHECIN]	–	–	–	–	–	–	–	–	–	2.05 (≈ 5.88 µM)	–	–	–	–	–	–	–	–	–	–	IC50 (MEF): 5.87 µg/mL (≈ 16.9 µM); IC50 [14]: 11.7 µg/mL (≈ 33.6 µM)
O=C(O)c1cn(C2CC2)c2cc(N3CCNCC3)c(F)cc2c1=O [CIPROFLOXACIN]	3.1 (≈ 9.36 µM)	1.6 (≈ 4.83 µM)	< 0.8	< 0.8	< 0.8	< 0.8	< 0.8	< 0.8	20	–	0	25	< 0.8	< 0.8	–	–	–	–	–	–	MBC (Staphylococcus aureus [9]): < 0.8 µg/mL; MIC (Staphylococcus aureus [9]): < 0.8 µg/mL; zone of inhibition at 1 µg/mL (Escherichia coli [10]): 30 mm; MBC (Escherichia coli [11]): < 0.8 µg/mL; MIC (Escherichia coli [11]): < 0.8 µg/mL; zone of inhibition at 1 µg/mL (Salmonella enterica [12]): 35 mm; zone of inhibition at 1 µg/mL (Bacillus subtilis [13]): 30 mm; MBC (Escherichia coli [15]): < 0.8 µg/mL; MIC (Escherichia coli [15]): < 0.8 µg/mL; MBC (Candida albicans [16]): 100 µg/mL (≈ 302 µM); MIC (Candida albicans [16]): 100 µg/mL (≈ 302 µM); MBC (Salmonella enterica [17]): < 0.8 µg/mL; MIC (Salmonella enterica [17]): < 0.8 µg/mL; MBC (Candida albicans [18]): > 100 µg/mL; MIC (Candida albicans [18]): > 100 µg/mL; MBC (Pseudomonas aeruginosa [19]): 3.1 µg/mL (≈ 9.36 µM); MIC (Pseudomonas aeruginosa [19]): 1.6 µg/mL (≈ 4.83 µM)
